Numbers after ± are expanded uncertainties.
Test: mn = molality of the nth substance listed, in mol/kg
Settings: 298.15 K, 101 kPa, Liquid, Rudolph densimeter

[Cl-].[Cl-].[Mg+2] [magnesium chloride] + CO
Settings | mass density [kg/m3]
m1 = 0.0105 | 788.19 ± 0.19
m1 = 0.021 | 789.37 ± 0.19
m1 = 0.0316 | 790.72 ± 0.19
m1 = 0.0422 | 791.97 ± 0.19
m1 = 0.0528 | 793.43 ± 0.19
m1 = 0.0581 | 794.28 ± 0.2
m1 = 0.0634 | 795.32 ± 0.2
m1 = 0.0687 | 796.28 ± 0.19
m1 = 0.074 | 796.94 ± 0.19
m1 = 0.0794 | 797.82 ± 0.2
m1 = 0.0847 | 798.59 ± 0.2
m1 = 0.09 | 799.4 ± 0.2
m1 = 0.0954 | 800.16 ± 0.2

O=[N+]([O-])[O-].O=[N+]([O-])[O-].[Zn+2] [nitric acid, zinc salt] + CO
Settings | mass density [kg/m3]
m1 = 0.0053 | 787.73 ± 0.19
m1 = 0.0106 | 788.43 ± 0.19
m1 = 0.0159 | 789.11 ± 0.19
m1 = 0.0212 | 789.81 ± 0.19
m1 = 0.0265 | 790.47 ± 0.19
m1 = 0.0292 | 790.79 ± 0.19
m1 = 0.0319 | 791.13 ± 0.19
m1 = 0.0346 | 791.46 ± 0.19
m1 = 0.0372 | 791.79 ± 0.19
m1 = 0.0399 | 792.11 ± 0.19
m1 = 0.0426 | 792.44 ± 0.19
m1 = 0.0453 | 792.76 ± 0.19
m1 = 0.048 | 793.07 ± 0.19
m1 = 0.0507 | 793.39 ± 0.19
m1 = 0.0533 | 793.72 ± 0.19
m1 = 0.0804 | 796.87 ± 0.19

O=[N+]([O-])[O-].O=[N+]([O-])[O-].[Mg+2] [magnesium nitrate] + CO
Settings | mass density [kg/m3]
m1 = 0.0067 | 787.75 ± 0.19
m1 = 0.0135 | 788.44 ± 0.19
m1 = 0.0203 | 789.09 ± 0.19
m1 = 0.0271 | 789.77 ± 0.19
m1 = 0.0339 | 790.43 ± 0.19
m1 = 0.0373 | 790.75 ± 0.19
m1 = 0.0407 | 791.07 ± 0.19
m1 = 0.0441 | 791.39 ± 0.19
m1 = 0.0475 | 791.72 ± 0.19
m1 = 0.051 | 792.03 ± 0.19
m1 = 0.0544 | 792.33 ± 0.19
m1 = 0.0578 | 792.66 ± 0.19
m1 = 0.0612 | 792.95 ± 0.19
m1 = 0.0647 | 793.26 ± 0.19
m1 = 0.0681 | 793.56 ± 0.19

Source: the NIST ThermoML archive (doi:10.1016/j.fluid.2014.07.005)
